Laboratory results as given in patent publication US20180298024A1, “CORTISTATIN ANALOGS AND USES THEREOF” (President and Fellows of Harvard College, priority 2015, published 2018).
Blank lines part the entries; values can stand above or below the molecule they belong to.

How the values were obtained:
MKPL1 = test: Half-maximal growth inhibition (GI50), MKPL1; type: cell-based; conditions: Homo sapiens, 240 h, AML, M7, read-out: GI50 (nM), day 10
Procedure: (§1) Compounds A, B, C, D, and F were tested against various cell lines to probe their broad utility against cancer. Cortistatin A (CA) was also tested against the cell lines in a head to head fashion.

in vivo = conditions: male, CD-1, mouse, ip, 0.16 mg/kg
Procedure: Formulation correction for salt content was not required for this study. Materials were vortexed and sonicated at room temperature following addition of vehicle. The solutions were maintained at ambient temperature stirring in the dark for at least 30 minutes prior to dose administration. The formulations were then vortexed and sonicated briefly to help ensure solubility.
Mice were selected from the Testing Facility's rodent colony. The animals were enrolled in the study based on acceptable health as determined by Testing Facility personnel on the day of test article administration. Animals were held in environmental acclimation for at least 48 hours (±6 hours) prior to dosing. Animals were maintained at temperatures between 16-26° C. (62-78° F.) with the humidity range between 30-70%. Animals in all groups were fasted overnight and food was returned 4 hours following dosing. Water was provided ad libitum throughout the study.
Whole blood samples for plasma were either collected from each animal by either direct vein puncture of the submandibular vein (survival blood collection) or by cardiac puncture following euthanasia with CO2 (terminal blood collection). […] Following collection, whole blood was placed into a tube containing K2EDTA and immediately placed on wet ice until processed for plasma. Whole blood samples were centrifuged at 2200×g for 10 minutes in a refrigerated centrifuge (5±3° C.) to isolate plasma. The samples were transferred to individual polypropylene containers and immediately placed on dry ice before storage at −70±10° C. until analysis. Plasma collected from undosed spare animals was pooled and analyzed as well.
Once collected the mouse plasma studies were quantitated using LCMS/MS spectroscopy to determine the concentration of compound. […] Eight calibration standards containing the analyte and internal standard imipramine were prepared and analyzed at the beginning and at the end of the sequence. A calibration curve was generated and sample concentrations calculated using the Quantitation software MassHunter.

[1] = system: Human AML cell line MV4;11; test: MV4;11 disseminated leukemia model (bioluminescence); type: in vivo, NSG mice; conditions: each compound at its own dose/schedule; data from 3 separate studies
Procedure: The in vivo anti-leukemic activity of Compounds A, B, C, D, and F was tested at the indicated doses and treatment schedules. The doses were chosen based on the compounds tolerability profile (i.e. CA was dosed at 0.16 mg/kg because higher doses caused weight loss or other tolerability issues outlined in Example 6). Human AML cell line MV4;11 expressing mCherry and luciferase were injected into NSG mice. Upon measurement of leukemia cell engraftment, treatment was initiated. Body weight and bioluminescence were measured. It has previously been shown (Shair, Nature 2015) that bioluminescence corresponds to leukemia burden. […] Moreover there was no appreciable advantage between IV or PO dosing observed.

SKNO-1 = test: Half-maximal growth inhibition (GI50), SKNO-1; type: cell-based; conditions: Homo sapiens, 240 h, AML, M2, RUNX1-RUNX1T1, read-out: GI50 (nM), day 10
Procedure: as §1

MV4; 11 = test: Half-maximal growth inhibition (GI50), MV4; 11; type: cell-based; conditions: Homo sapiens, 240 h, AML, M5, MLL-AF4, read-out: GI50 (nM), day 10
Procedure: as §1

HEL = test: Half-maximal growth inhibition (GI50), HEL; type: cell-based; conditions: Homo sapiens, 240 h, AML, erythroleukemia, JAK2V617F, read-out: GI50 (nM), day 10
Procedure: as §1

OCI-AML2 = test: Half-maximal growth inhibition (GI50), OCI-AML2; type: cell-based; conditions: Homo sapiens, 240 h, AML, M4, DNMT3A R635W, read-out: GI50 (nM), day 10
Procedure: as §1

K562 = test: Half-maximal growth inhibition (GI50), K562; type: cell-based; conditions: Homo sapiens, 240 h, CML, BCR-Abl, read-out: GI50 (nM), day 10
Procedure: as §1

MOLM-14 = test: Half-maximal growth inhibition (GI50), MOLM-14; type: cell-based; conditions: Homo sapiens, 240 h, AML, M5, MLL-AF9, read-out: GI50 (nM), day 10
Procedure: as §1

Opiate μ(OP3, MOP) = target: T1, Opiate μ(OP3, MOP) (Homo sapiens, UniProt P35372); test: Panlab assay, Opiate μ(OP3, MOP); type: binding
T1 construct: Eurofins Panlabs
Procedure: (§2) Compounds A, B, C, and D were tested in Panlab assays to evaluate potential off-target activity using standard assay kits. Methods employed in these studies have been adapted from the scientific literature to maximize reliability and reproducibility.
IC50 values were determined by a non-linear, least squares regression analysis using MathIQ™ (ID Business Solutions Ltd., UK). […] Where presented, the Hill coefficient (nH), defining the slope of the competitive binding curve, was calculated using MathIQ™.

Adenosine Transporter = target: T2, Adenosine Transporter (Cavia porcellus, UniProt H0V4R7); test: Panlab assay, Adenosine Transporter; type: binding; conditions: reference standard
T2 sequence (H0V4R7 1-461): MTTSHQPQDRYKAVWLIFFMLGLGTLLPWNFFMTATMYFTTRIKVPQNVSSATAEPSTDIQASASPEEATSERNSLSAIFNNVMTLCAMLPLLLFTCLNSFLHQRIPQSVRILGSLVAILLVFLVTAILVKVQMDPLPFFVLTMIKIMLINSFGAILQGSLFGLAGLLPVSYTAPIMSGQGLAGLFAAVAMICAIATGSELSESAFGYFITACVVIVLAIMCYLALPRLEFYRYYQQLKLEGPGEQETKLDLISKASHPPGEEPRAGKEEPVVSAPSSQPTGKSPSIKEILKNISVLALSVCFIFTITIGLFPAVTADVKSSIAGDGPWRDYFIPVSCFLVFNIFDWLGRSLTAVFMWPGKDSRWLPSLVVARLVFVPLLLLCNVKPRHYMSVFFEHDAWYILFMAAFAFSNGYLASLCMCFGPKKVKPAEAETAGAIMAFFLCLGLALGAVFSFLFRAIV
Procedure: as §2, with “reproducibility. Reference standards were run as an integral part of each assay to ensure the validity of the results obtained.” for “reproducibility.”
IC50 values were determined by a non-linear, least squares regression analysis using MathIQ™ (ID Business Solutions Ltd., UK). Where inhibition constants (Ki) are presented, the Ki values were calculated using the equation of Cheng and Prusoff (Cheng, Y., Prusoff, W. H., Biochem. Pharmacol. 22:3099-3108, 1973) using the observed IC50 of the tested compound, the concentration of radioligand employed in the assay, and the historical values for the KD of the ligand (obtained experimentally at Eurofins Panlabs, Inc.). Where presented, the Hill coefficient (nH), defining the slope of the competitive binding curve, was calculated using MathIQ™.

T1 sequence (P35372 whole entry): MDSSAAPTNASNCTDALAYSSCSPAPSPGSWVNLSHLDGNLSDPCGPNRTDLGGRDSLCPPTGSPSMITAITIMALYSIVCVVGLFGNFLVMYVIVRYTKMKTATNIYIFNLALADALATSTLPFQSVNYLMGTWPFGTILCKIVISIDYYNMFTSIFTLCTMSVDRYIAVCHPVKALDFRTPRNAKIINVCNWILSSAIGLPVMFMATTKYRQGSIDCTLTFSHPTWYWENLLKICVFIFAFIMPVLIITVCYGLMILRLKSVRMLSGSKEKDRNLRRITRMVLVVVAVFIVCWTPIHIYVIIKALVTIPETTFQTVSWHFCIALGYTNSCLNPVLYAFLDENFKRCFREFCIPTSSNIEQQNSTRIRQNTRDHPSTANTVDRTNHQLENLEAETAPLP

Structure (SMILES): CN(C)[C@H]1C[C@@]23CC[C@@]4(O2)C(=CC[C@]2(C)[C@@H](c5ccc6ccncc6c5)CC[C@H]24)C=C3[C@@H](O)[C@@H]1O [Cortistatin A]
GI50 (MKPL1): < 1 nM
AUC(0-inf) (in vivo): 134 ng·h/mL
Efficacy Rank Day 15 [1]: 4
GI50 (SKNO-1): < 1 nM
GI50 (MV4; 11): < 1 nM
GI50 (HEL): > 1000 nM
GI50 (OCI-AML2): 1 nM
GI50 (K562): > 1000 nM
GI50 (MOLM-14): < 1 nM

Structure (SMILES): C[C@@H](NC(=O)[C@@H](N)Cc1ccc(O)cc1)C(=O)NCC(=O)N(C)[C@@H](Cc1ccccc1)C(=O)NCCO [DAMGO, reference compound]
nH (Hill coefficient), Opiate μ(OP3, MOP) (Opiate μ(OP3, MOP)): 0.75

IC50 (Adenosine Transporter): 0.35 nM
Ki (Adenosine Transporter; Cheng and Prusoff): 0.12 nM
Structure (SMILES): O=[N+]([O-])c1ccc(CSc2ncnc3c2ncn3C2OC(CO)C(O)C2O)cc1 (stereo not drawn) [nitrobenzylthioinosine, Nitrobenzylthioinosine, reference compound]
